Key:
[1] = test system: lesional skin of patients with moderate atopic dermatitis; assay: Skin thickness in lesional skin biopsies, Phase II atopic dermatitis study (Example 3); type: in vivo, human; settings: Day 22, compared to baseline and compared to vehicle; topical niclosamide 2% once daily 3 weeks
Experimental: (§1) Patients received topical applications of a niclosamide 2% composition and vehicle once daily for 3 weeks, followed by a 1-week follow up period. Topical niclosamide 2% and vehicle was applied on two separate target lesions of atopic dermatitis (lesions of at least 3×3-cm that are at least 2 cm apart, excluding the face, scalp, genitals, hands, and feet). The application areas (5×5-cm) were randomized (1:1) to once daily application of niclosamide 2% or vehicle at 5 mg/cm^2 without occlusion 6 days per week. Patients came to the study site for all study product application for a total of 3 weeks.
Three skin biopsies were collected in all patients (one from lesional skin at baseline, pre-dosing at Day 1, and two from lesional skin at Day 22 (one where topical niclosamide 2% had been applied and one where the vehicle had been applied). The lesional skin biopsies were analysed for skin thickness and inflammation biomarkers.

[2] = test system: skin barrier and inflammation biomarkers in lesional skin biopsies; assay: qRT-PCR (TLDA) biomarker gene expression in lesional skin biopsies (Example 3); type: in vivo, human; settings: fold change, topical niclosamide 2% once daily 3 weeks, AD lesional skin
Experimental: as §1
Skin barrier and inflammation biomarker levels were determined from lesional skin biopsies from application areas.
The skin biopsy samples were analysed by immunohistochemistry (IHC), and by gene expression studies by RT-PCR using TaqMan Low Density Array (TLDA), and by microarray using Affymetrix U133A Plus 2. The immunohistochemistry (IHC) was used to analyse cell biomarkers. The methodologies as disclosed by Guttman-Yassky et al, “Major differences in inflammatory dendritic cells and their products distinguish atopic dermatitis from psoriasis”, The Journal of Allergy and Clinical Immunology, vol. 119, issue 5, pages 1210-1217, 2007, were followed except for that U133A Plus 2-set Gene Chip probe arrays was used instead of U95A-set Gene Chip probe arrays.
Expression values (threshold cycle [Ct]) were normalized to Rplp0 by negatively transforming the Ct values to −dCt (IL17A was normalized to hARP, as analysed by qPCR). The undetected −dCt values were estimated for each gene as the 20% of the minimum across all samples. qRT-PCR expression data were modelled using a mixed effect model with Visit and Treatment Area as a fixed effect and a random intercept for each patient. This formulation intrinsically models the within patient correlation structure as in the case of a paired t-test. This approach introduces less bias than restricting the analysis for those patients who completed the study. Contrasts were used to estimate the fold changes with treatment within each treatment group and conduct hypothesis testing.

[3] = Day 22, vs vehicle-treated lesion
[4] = Day 22 vs baseline, listed as niclosamide

O=C(Nc1ccc([N+](=O)[O-])cc1Cl)c1cc(Cl)ccc1O [Niclosamide, niclosamide]
skin thickness [1]: No differences
CAMP expression, Niclosamide vs. Vehicle (qRT-PCR) [2, 3]: −1.33
CCL5 expression, Niclosamide vs. Vehicle (qRT-PCR) [2, 3]: −1.03
CCL17 expression, Niclosamide vs. Vehicle (qRT-PCR) [2, 3]: −1.37
CCL18 expression, Niclosamide vs. Vehicle (qRT-PCR) [2, 3]: −2.02
CCL20 expression, Niclosamide vs. Vehicle (qRT-PCR) [2, 3]: −2.25
CCL22 expression, Niclosamide vs. Vehicle (qRT-PCR) [2, 3]: −1.49
CCL26 expression, Niclosamide vs. Vehicle (qRT-PCR) [2, 3]: −1.49
CXCL1 expression, Niclosamide vs. Vehicle (qRT-PCR) [2, 3]: −1.63
CXCL2 expression, Niclosamide vs. Vehicle (qRT-PCR) [2, 3]: −1.21
CXCL9 expression, Niclosamide vs. Vehicle (qRT-PCR) [2, 3]: 1.16
CXCL10 expression, Niclosamide vs. Vehicle (qRT-PCR) [2, 3]: −1.10
DEFB4A/DEFB4B expression, Niclosamide vs. Vehicle (qRT-PCR) [2, 3]: −2.06
FLG expression, Niclosamide vs. Vehicle (qRT-PCR) [2, 3]: 1.30
FOXP3 expression, Niclosamide vs. Vehicle (qRT-PCR) [2, 3]: −1.14
IFNg expression, Niclosamide vs. Vehicle (qRT-PCR) [2, 3]: 1.19
IL1B expression, Niclosamide vs. Vehicle (qRT-PCR) [2, 3]: −1.01
IL2 expression, Niclosamide vs. Vehicle (qRT-PCR) [2, 3]: −1.36
IL5 expression, Niclosamide vs. Vehicle (qRT-PCR) [2, 3]: −1.47
IL6 expression, Niclosamide vs. Vehicle (qRT-PCR) [2, 3]: −1.24
IL8 expression, Niclosamide vs. Vehicle (qRT-PCR) [2, 3]: −1.46
IL9 expression, Niclosamide vs. Vehicle (qRT-PCR) [2, 3]: −1.17
IL10 expression, Niclosamide vs. Vehicle (qRT-PCR) [2, 3]: −1.51
IL12A expression, Niclosamide vs. Vehicle (qRT-PCR) [2, 3]: 1.09
IL12B expression, Niclosamide vs. Vehicle (qRT-PCR) [2, 3]: −1.42
IL13 expression, Niclosamide vs. Vehicle (qRT-PCR) [2, 3]: −1.59
IL15RA expression, Niclosamide vs. Vehicle (qRT-PCR) [2, 3]: −1.12
IL15 expression, Niclosamide vs. Vehicle (qRT-PCR) [2, 3]: −1.14
IL17A expression, Niclosamide vs. Vehicle (qRT-PCR) [2, 3]: −1.40
IL17C expression, Niclosamide vs. Vehicle (qRT-PCR) [2, 3]: −2.35
IL17F expression, Niclosamide vs. Vehicle (qRT-PCR) [2, 3]: 1.37
IL19 expression, Niclosamide vs. Vehicle (qRT-PCR) [2, 3]: 1.16
IL22 expression, Niclosamide vs. Vehicle (qRT-PCR) [2, 3]: −1.97
IL23A expression, Niclosamide vs. Vehicle (qRT-PCR) [2, 3]: −1.37
IL31 expression, Niclosamide vs. Vehicle (qRT-PCR) [2, 3]: −1.46
IL33 expression, Niclosamide vs. Vehicle (qRT-PCR) [2, 3]: 1.11
KRT16 expression, Niclosamide vs. Vehicle (qRT-PCR) [2, 3]: −1.60
LOR expression, Niclosamide vs. Vehicle (qRT-PCR) [2, 3]: 1.27
MMP12 expression, Niclosamide vs. Vehicle (qRT-PCR) [2, 3]: −1.90
PI3 expression, Niclosamide vs. Vehicle (qRT-PCR) [2, 3]: −1.93
PPL expression, Niclosamide vs. Vehicle (qRT-PCR) [2, 3]: 1.04
S100A7 expression, Niclosamide vs. Vehicle (qRT-PCR) [2, 3]: −2.20
S100A8 expression, Niclosamide vs. Vehicle (qRT-PCR) [2, 3]: −2.02
S100A9 expression, Niclosamide vs. Vehicle (qRT-PCR) [2, 3]: −1.97
S100A12 expression, Niclosamide vs. Vehicle (qRT-PCR) [2, 3]: −2.11
TSLPR expression, Niclosamide vs. Vehicle (qRT-PCR) [2, 3]: −1.36
CAMP expression, Niclosamide vs. Predose (qRT-PCR) ([2]; Day 22 vs baseline): −3.02
CCL5 expression, Niclosamide vs. Predose (qRT-PCR) ([2]; Day 22 vs baseline): −1.22
CCL17 expression, Niclosamide vs. Predose (qRT-PCR) ([2]; Day 22 vs baseline): −2.02
CCL18 expression, Niclosamide vs. Predose (qRT-PCR) ([2]; Day 22 vs baseline): −2.45
CCL20 expression, Niclosamide vs. Predose (qRT-PCR) ([2]; Day 22 vs baseline): −1.96
CCL22 expression, Niclosamide vs. Predose (qRT-PCR) ([2]; Day 22 vs baseline): −1.95
CCL26 expression, Niclosamide vs. Predose (qRT-PCR) ([2]; Day 22 vs baseline): −1.03
CXCL1 expression, Niclosamide vs. Predose (qRT-PCR) ([2]; Day 22 vs baseline): −2.80
CXCL2 expression, Niclosamide vs. Predose (qRT-PCR) ([2]; Day 22 vs baseline): −1.89
CXCL9 expression, Niclosamide vs. Predose (qRT-PCR) ([2]; Day 22 vs baseline): −1.51
CXCL10 expression, Niclosamide vs. Predose (qRT-PCR) ([2]; Day 22 vs baseline): −1.64
DEFB4A/DEFB4B expression, Niclosamide vs. Predose (qRT-PCR) ([2]; Day 22 vs baseline): −4.09
FLG expression, Niclosamide vs. Predose (qRT-PCR) ([2]; Day 22 vs baseline): 1.50
FOXP3 expression, Niclosamide vs. Predose (qRT-PCR) ([2]; Day 22 vs baseline): −1.39
IFNg expression, Niclosamide vs. Predose (qRT-PCR) ([2]; Day 22 vs baseline): −1.11
IL1B expression, Niclosamide vs. Predose (qRT-PCR) ([2]; Day 22 vs baseline): −1.64
IL2 expression, Niclosamide vs. Predose (qRT-PCR) ([2]; Day 22 vs baseline): −1.20
IL5 expression, Niclosamide vs. Predose (qRT-PCR) ([2]; Day 22 vs baseline): −2.38
IL6 expression, Niclosamide vs. Predose (qRT-PCR) ([2]; Day 22 vs baseline): −2.34
IL8 expression, Niclosamide vs. Predose (qRT-PCR) ([2]; Day 22 vs baseline): −3.78
IL9 expression, Niclosamide vs. Predose (qRT-PCR) ([2]; Day 22 vs baseline): −1.91
IL10 expression, Niclosamide vs. Predose (qRT-PCR) ([2]; Day 22 vs baseline): −1.85
IL12A expression, Niclosamide vs. Predose (qRT-PCR) ([2]; Day 22 vs baseline): −1.01
IL12B expression, Niclosamide vs. Predose (qRT-PCR) ([2]; Day 22 vs baseline): −2.01
IL13 expression, Niclosamide vs. Predose (qRT-PCR) ([2]; Day 22 vs baseline): −2.06
IL15RA expression, Niclosamide vs. Predose (qRT-PCR) ([2]; Day 22 vs baseline): −1.46
IL15 expression, Niclosamide vs. Predose (qRT-PCR) ([2]; Day 22 vs baseline): −1.47
IL17A expression, Niclosamide vs. Predose (qRT-PCR) ([2]; Day 22 vs baseline): −2.23
IL17C expression, Niclosamide vs. Predose (qRT-PCR) ([2]; Day 22 vs baseline): −3.24
IL17F expression, Niclosamide vs. Predose (qRT-PCR) ([2]; Day 22 vs baseline): 1.02
IL19 expression, Niclosamide vs. Predose (qRT-PCR) ([2]; Day 22 vs baseline): −3.26
IL22 expression, Niclosamide vs. Predose (qRT-PCR) ([2]; Day 22 vs baseline): −2.86
IL23A expression, Niclosamide vs. Predose (qRT-PCR) ([2]; Day 22 vs baseline): −2.13
IL31 expression, Niclosamide vs. Predose (qRT-PCR) ([2]; Day 22 vs baseline): −1.85
IL33 expression, Niclosamide vs. Predose (qRT-PCR) ([2]; Day 22 vs baseline): −1.08
KRT16 expression, Niclosamide vs. Predose (qRT-PCR) ([2]; Day 22 vs baseline): −3.88
LOR expression, Niclosamide vs. Predose (qRT-PCR) ([2]; Day 22 vs baseline): 1.67
MMP12 expression, Niclosamide vs. Predose (qRT-PCR) ([2]; Day 22 vs baseline): −3.27
PI3 expression, Niclosamide vs. Predose (qRT-PCR) ([2]; Day 22 vs baseline): −4.52
PPL expression, Niclosamide vs. Predose (qRT-PCR) ([2]; Day 22 vs baseline): −1.07
S100A7 expression, Niclosamide vs. Predose (qRT-PCR) ([2]; Day 22 vs baseline): −3.04
S100A8 expression, Niclosamide vs. Predose (qRT-PCR) ([2]; Day 22 vs baseline): −3.85
S100A9 expression, Niclosamide vs. Predose (qRT-PCR) ([2]; Day 22 vs baseline): −3.47
S100A12 expression, Niclosamide vs. Predose (qRT-PCR) ([2]; Day 22 vs baseline): −4.29
TSLPR expression, Niclosamide vs. Predose (qRT-PCR) ([2]; Day 22 vs baseline): −1.82
FLG expression, Niclosamide vs. Predose (qRT-PCR) [2, 4]: increased significantly
LOR expression, Niclosamide vs. Predose (qRT-PCR) [2, 4]: increased significantly

— patent US20210379085A1, “HALOGENATED SALICYLANILIDES FOR TREATING THE SYMPTOMS OF DERMATITIS” (Union Therapeutics A/S, priority 2018, published 2021)
